Data reported in ChEMBL document CHEMBL3046002, “Synthesis and antimicrobial activity of coumarin pyrazole pyrimidine 2,4,6(1H,3H,5H)triones and thioxopyrimidine4,6(1H,5H)diones” (2013).
Converted amounts (≈) assume the structure as drawn. The source made the active and inactive calls. No cut-off for these calls is given here.

Legend:
Aspergillus niger [1] = assay: Antimicrobial activity against Aspergillus niger assessed as diameter of growth inhibition zone at 150 ug/ml after 48 hr by agar cup bioassay; type: functional; details: read-out: DIZ
Aspergillus niger [2] = assay: Antimicrobial activity against Aspergillus niger assessed as diameter of growth inhibition zone at 100 ug/ml after 48 hr by agar cup bioassay; type: functional; details: read-out: DIZ
Klebsiella pneumoniae = assay: Antimicrobial activity against Klebsiella pneumoniae assessed as growth inhibition after 24 hr by broth dilution method; type: functional
Pseudomonas aeruginosa = assay: Antimicrobial activity against Pseudomonas aeruginosa assessed as growth inhibition after 24 hr by broth dilution method; type: functional
Escherichia coli = assay: Antimicrobial activity against Escherichia coli assessed as growth inhibition after 24 hr by broth dilution method; type: functional
[3] = tested on: Staphylococcus epidermidis; assay: Antimicrobial activity against Staphylococcus epidermidis assessed as growth inhibition after 24 hr by broth dilution method; type: functional
Staphylococcus aureus = assay: Antimicrobial activity against Staphylococcus aureus assessed as growth inhibition after 24 hr by broth dilution method; type: functional
Bacillus subtilis = assay: Antimicrobial activity against Bacillus subtilis assessed as growth inhibition after 24 hr by broth dilution method; type: functional
Aspergillus niger [4] = assay: Antimicrobial activity against Aspergillus niger assessed as growth inhibition zone after 48 hr by agar cup bioassay; type: functional, organism-based
Aspergillus niger [5] = assay: Antimicrobial activity against Aspergillus niger assessed as diameter of growth inhibition zone at 30 ug/ml after 48 hr by agar cup bioassay; type: functional; details: read-out: DIZ

Row | Compound | zone of inhibition at 150 µg/mL (Aspergillus niger [1]) | zone of inhibition at 100 µg/mL (Aspergillus niger [2]) | MIC (Klebsiella pneumoniae) | MIC (Pseudomonas aeruginosa) | MIC (Escherichia coli) | MIC [3] | MIC (Staphylococcus aureus) | MIC (Bacillus subtilis) | growth inhibition (GI) (Aspergillus niger [4]) | zone of inhibition at 30 µg/mL (Aspergillus niger [5])
1 | O=C1NC(=O)C(=Cc2cn(-c3ccccc3)nc2-c2cc3cc(Br)c(Br)cc3oc2=O)C(=O)N1 | 10 mm | 7 mm | 300 µg/mL (≈ 514 µM) | 150 µg/mL (≈ 257 µM) | 150 µg/mL (≈ 257 µM) | 150 µg/mL (≈ 257 µM) | 150 µg/mL (≈ 257 µM) | 150 µg/mL (≈ 257 µM) |  | 
2 | O=C1NC(=O)C(=Cc2cn(-c3ccccc3)nc2-c2cc3cc(Cl)c(Cl)cc3oc2=O)C(=O)N1 |  |  | 150 µg/mL (≈ 303 µM) | 150 µg/mL (≈ 303 µM) | 300 µg/mL (≈ 606 µM) | 300 µg/mL (≈ 606 µM) | 300 µg/mL (≈ 606 µM) | 300 µg/mL (≈ 606 µM) | inactive | 
3 | O=C1NC(=O)C(=Cc2cn(-c3ccccc3)nc2-c2cc3ccccc3oc2=O)C(=O)N1 |  |  | 150 µg/mL (≈ 352 µM) | 150 µg/mL (≈ 352 µM) | 300 µg/mL (≈ 704 µM) | 300 µg/mL (≈ 704 µM) | 300 µg/mL (≈ 704 µM) | 300 µg/mL (≈ 704 µM) | inactive | 
4 | O=C1NC(=S)NC(=O)C1=Cc1cn(-c2ccccc2)nc1-c1cc2cc(Br)c(Br)cc2oc1=O |  |  | 150 µg/mL (≈ 250 µM) | 150 µg/mL (≈ 250 µM) | 150 µg/mL (≈ 250 µM) | 300 µg/mL (≈ 500 µM) | 150 µg/mL (≈ 250 µM) | 150 µg/mL (≈ 250 µM) | inactive | 
5 | O=C(O)c1cn(C2CC2)c2cc(N3CCNCC3)c(F)cc2c1=O [CIPROFLOXACIN] |  |  | 25 µg/mL (≈ 75.4 µM) |  | 20 µg/mL (≈ 60.4 µM) | 22 µg/mL (≈ 66.4 µM) |  | 24 µg/mL (≈ 72.4 µM) |  | 
6 | O=C1NC(=S)NC(=O)C1=Cc1cn(-c2ccccc2)nc1-c1cc2cc(Cl)ccc2oc1=O |  |  | 150 µg/mL (≈ 315 µM) | 150 µg/mL (≈ 315 µM) | 300 µg/mL (≈ 629 µM) | 600 µg/mL (≈ 1260 µM) | 300 µg/mL (≈ 629 µM) | 150 µg/mL (≈ 315 µM) | inactive | 
7 | O=C1NC(=O)C(=Cc2cn(-c3ccccc3)nc2-c2cc3cc(Cl)ccc3oc2=O)C(=O)N1 |  |  | 150 µg/mL (≈ 325 µM) | 150 µg/mL (≈ 325 µM) | 150 µg/mL (≈ 325 µM) | 150 µg/mL (≈ 325 µM) | 150 µg/mL (≈ 325 µM) | 150 µg/mL (≈ 325 µM) | inactive | 
8 | OC(Cn1cncn1)(Cn1cncn1)c1ccc(F)cc1F [FLUCONAZOLE] |  |  |  |  |  |  |  |  |  | 30 mm
9 | O=C1NC(=S)NC(=O)C1=Cc1cn(-c2ccccc2)nc1-c1cc2cc(Cl)c(Cl)cc2oc1=O |  |  | 150 µg/mL (≈ 293 µM) | 300 µg/mL (≈ 587 µM) | 600 µg/mL (≈ 1170 µM) | 300 µg/mL (≈ 587 µM) | 150 µg/mL (≈ 293 µM) | 300 µg/mL (≈ 587 µM) | inactive | 
10 | O=C1NC(=O)C(=Cc2cn(-c3ccccc3)nc2-c2cc3cc(Br)ccc3oc2=O)C(=O)N1 | 20 mm | 14 mm | 150 µg/mL (≈ 297 µM) | 600 µg/mL (≈ 1190 µM) | 600 µg/mL (≈ 1190 µM) | 150 µg/mL (≈ 297 µM) | 150 µg/mL (≈ 297 µM) | 150 µg/mL (≈ 297 µM) |  | 
11 | O=C1NC(=S)NC(=O)C1=Cc1cn(-c2ccccc2)nc1-c1cc2ccccc2oc1=O |  |  | 150 µg/mL (≈ 339 µM) | 300 µg/mL (≈ 678 µM) | 600 µg/mL (≈ 1360 µM) | 150 µg/mL (≈ 339 µM) | 150 µg/mL (≈ 339 µM) | 300 µg/mL (≈ 678 µM) | inactive | 
12 | O=C1NC(=S)NC(=O)C1=Cc1cn(-c2ccccc2)nc1-c1cc2cc(Br)ccc2oc1=O |  |  | 150 µg/mL (≈ 288 µM) | 300 µg/mL (≈ 575 µM) | 300 µg/mL (≈ 575 µM) | 300 µg/mL (≈ 575 µM) | 600 µg/mL (≈ 1150 µM) | 600 µg/mL (≈ 1150 µM) | inactive | 
13 | O=C1NC(=S)NC(=O)C1=Cc1cn(-c2ccccc2)nc1-c1cc2cc3ccccc3cc2oc1=O |  |  | 150 µg/mL (≈ 305 µM) | 150 µg/mL (≈ 305 µM) | 600 µg/mL (≈ 1220 µM) | 300 µg/mL (≈ 609 µM) | 150 µg/mL (≈ 305 µM) | 300 µg/mL (≈ 609 µM) | inactive | 
14 | O=C1NC(=O)C(=Cc2cn(-c3ccccc3)nc2-c2cc3cc4ccccc4cc3oc2=O)C(=O)N1 |  |  | 300 µg/mL (≈ 630 µM) | 150 µg/mL (≈ 315 µM) | 300 µg/mL (≈ 630 µM) | 300 µg/mL (≈ 630 µM) | 300 µg/mL (≈ 630 µM) | 150 µg/mL (≈ 315 µM) | inactive | 
